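Compound exposure: 48 hours, 5 concentrations, 96-well plates. Abbreviation: GI50, concentration required for 50% inhibition of growth. The concentration for full growth arrest is given as TGI.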
Key:
Test in all cases: NCI tumour cell line growth inhibition, 48 h
BT-549 breast = test system: BT-549 breast
A549 NSCLC = test system: A549 NSCLC
MALME-3M melanoma = test system: MALME-3M melanoma
SF-539 CNS = test system: SF-539 CNS
HL-60(TB) leukemia = test system: HL-60(TB) leukemia
RPMI-8226 leukemia = test system: RPMI-8226 leukemia
NCI-H23 lung = test system: NCI-H23 lung
A498 renal = test system: A498 renal
HCT-116 colon = test system: HCT-116 colon
U251 CNS = test system: U251 CNS
RXF 393 renal = test system: RXF 393 renal
EKVX NSCLC = test system: EKVX NSCLC
T-47D breast = test system: T-47D breast
HT29 colon = test system: HT29 colon
786-0 renal = test system: 786-0 renal
UACC-62 melanoma = test system: UACC-62 melanoma
UO-31 renal = test system: UO-31 renal
CAKI-1 renal = test system: CAKI-1 renal
K-562 leukemia = test system: K-562 leukemia
TK-10 renal = test system: TK-10 renal
NCI/ADR-RES ovarian = test system: NCI/ADR-RES ovarian
MOLT-4 leukemia = test system: MOLT-4 leukemia
HCT-15 colon = test system: HCT-15 colon
SNB-19 CNS = test system: SNB-19 CNS
SNB-75 CNS = test system: SNB-75 CNS
MDA-MB-231 breast = test system: MDA-MB-231 breast
MDA-MB-435 = test system: MDA-MB-435
SF-295 CNS = test system: SF-295 CNS

CCN(CCO)CC(C)Nc1ccc([N+](=O)[O-])c2sc3ccccc3c(=O)c12 (stereo not given)
TGI (BT-549 breast): 13.1 µM
GI50 (A549 NSCLC): 0.535 µM
TGI (A549 NSCLC): 1.97 µM
GI50 (MALME-3M melanoma): 0.421 µM
TGI (MALME-3M melanoma): 2.13 µM
GI50 (SF-539 CNS): 3.6 µM
TGI (SF-539 CNS): 19.2 µM
GI50 (HL-60(TB) leukemia): 0.917 µM
TGI (HL-60(TB) leukemia): 4 µM
GI50 (RPMI-8226 leukemia): 1.26 µM
TGI (RPMI-8226 leukemia): 4 µM
GI50 (NCI-H23 lung): 1.78 µM
TGI (NCI-H23 lung): 6.4 µM
GI50 (A498 renal): 0.252 µM
TGI (A498 renal): 9.54 µM
GI50 (HCT-116 colon): 0.996 µM
TGI (HCT-116 colon): 2.69 µM
GI50 (U251 CNS): 0.716 µM
TGI (U251 CNS): 3.35 µM
GI50 (RXF 393 renal): 1.89 µM
TGI (RXF 393 renal): 8 µM
GI50 (EKVX NSCLC): 1.67 µM
TGI (EKVX NSCLC): 6.28 µM
GI50 (T-47D breast): 2.68 µM
TGI (T-47D breast): 26.8 µM
GI50 (HT29 colon): 1.42 µM
TGI (HT29 colon): 3.62 µM
GI50 (786-0 renal): 1.37 µM
TGI (786-0 renal): 3.97 µM
GI50 (UACC-62 melanoma): 1.63 µM
TGI (UACC-62 melanoma): 12.8 µM
GI50 (UO-31 renal): 0.278 µM
TGI (UO-31 renal): 1.65 µM
GI50 (CAKI-1 renal): 0.304 µM
TGI (CAKI-1 renal): 1.09 µM
GI50 (K-562 leukemia): 1.44 µM
TGI (K-562 leukemia): 6.71 µM
GI50 (TK-10 renal): 1.44 µM
TGI (TK-10 renal): 11.7 µM
GI50 (NCI/ADR-RES ovarian): 1.6 µM
TGI (NCI/ADR-RES ovarian): 5.86 µM
GI50 (MOLT-4 leukemia): 0.361 µM
TGI (MOLT-4 leukemia): 2.89 µM
GI50 (HCT-15 colon): 1.76 µM
TGI (HCT-15 colon): > 100 µM
GI50 (SNB-19 CNS): 2.34 µM
TGI (SNB-19 CNS): 19 µM
GI50 (SNB-75 CNS): 1.84 µM
TGI (SNB-75 CNS): 12.6 µM
GI50 (MDA-MB-231 breast): 2.6 µM
TGI (MDA-MB-231 breast): 12.3 µM
GI50 (MDA-MB-435): 1.54 µM
TGI (MDA-MB-435): 3.8 µM
GI50 (SF-295 CNS): 0.488 µM
TGI (SF-295 CNS): 2.12 µM

From PubChem BioAssay (NCI)
